Data reported in patent US4340602A, “Compositions inhibiting estrogen sulfotransferase activity” (Wayne State University, priority 1978, dated 1982).
Values joined by “and” are separate entries in the source; they are usually repeats but may differ in a detail not shown here. Equal values may be shown once.

Columns and labels:
in vitro = in vitro ADME, porcine; details: pig, minced uterus
Text: (§1) Animals. Gilts (virgin female pigs) or sows (previously pregnant pigs) in estrus from the pig farm at Michigan State University were mated with boars of established fertility. Following insemination, the females were sacrificed at various times up to 25 days later. Uteri were removed and immediately chilled on ice. Fertilization was confirmed initially by microscopic examination of oviductal washings for fertilized ova (2-5 days following insemination) by histological inspection of the corpus luteum and uterus (8-13 days) and later (17-25 days) by gross inspection of the uterus for the amniotic sac and fetuses.
(§2) Radioisotopes. [6,7-^3 H]E2 (45 Ci/mmol) was obtained from New England Nuclear Corp., Boston, Mass., and purified on ITLC-SA (Gelman Instrument Co.) with CHCl3 :CH3 OH (97:3) as the developing solvent. Na2^35 SO4 (800-1000 mCi/mmol) was obtained from New England Nuclear Corp. and used directly from the bottle.
(§3) Incubation and isolation of [^3 H]E2 and Na2^35 SO4 metabolites. Samples of whole uterus (400 mg), minced in 0.9% saline, were filtered over medium coarse nylon gauze and placed in 2.5 ml of a modified Krebs-Ringer bicarbonate buffer (MgCl2 instead of MgSO4) with glucose (1.5 mg/ml). After the [6,7-^3 H]E2 (3×10^-9 M) and Na2^35 SO4 (1×10^-4 M) were added, the mixture was incubated for 2 hr at 37° C. under […]. The incubate was then boiled for 2 min. to stop the enzymatic reactions. A control was included with each experiment, which contained all of the incubation mixture, and was carried throughout the entire procedure except for the actual incubation.
(§4) The filtered tissue was extracted in 2:1 CHCl3 :CH3 OH (10 ml) for 2 hr, and this extract, reduced almost to dryness, was recombined with the incubation supernatant. This combination in turn was extracted with ethyl acetate (2.5 ml, 3 times) at neutral pH in the presence of (NH4)2 SO4 (0.5 g/ml). The concentrated extract was applied to an alumina column in benzene. After the column was washed with benzene, the unconjugated estrogens were eluted with 100 ml ethanol and the estrogen sulfates with ethanol:water (1:1, 100 ml). The conjugated fraction was further separated from trailing free estrogens by a single development of instant thin layer chromatography (SG; chloroform:acetone:acetic acid, 110:35:6). Marker estrogen sulfates run simultaneously were identified by staining with 50% methylene blue reagent (25 mg % methylene blue in 0.05 N sulfuric acid) in acetone.
(§5) The estrogen sulfates were hydrolyzed with aryl sulfatase^3 (5 mg/10 ml) in 0.1 M sodium acetate buffer (pH 5) for two days at 37° C. (without shaking or mixing) and the estrogen moiety extracted into ether. Both the unconjugated estrogens and those hydrolyzed from sulfate esters were further purified by the procedure of Brooks et al, Biochim. Biophys. Acta, 104:250-260 (1965) and the metabolites identified and quantitated on instant thin layer chromatography (SA; chloroform:methanol, 97:3) in accordance with Pack et al (1974), supra.

[1] = tested on: uteri obtained from fertilized pigs; test: in vitro; type: in vitro ADME, porcine; details: 0.003 µM
Text: as §1, §2, §3, §4, §5

[2] = Oxidation and sulfurylation of tritiated E2 by human endometrial curettings; type: in vitro ADME; details: human, endometrium, Table IV, 2 h, 3×10^-9 M E2
Experimental: (§6) Radioisotopes. [6,7-^3 H]E2 and [2,4,6,7-^3 H]E2 were obtained from New England Nuclear Corp., Boston, Mass., and purified on ITLC-SA (Gelman Instrument Co.) with CHCl3 :CH3 OH (97:3) as the developing solvent. Na2^35 SO4 was obtained from New England Nuclear Corp. and used directly from the bottle.
(§7) Human endometria. Endometrial specimens (60-1500 mg) were gathered from the operating room at the time of surgery and placed in 0.9% saline solution on ice. Most patients (22) were young women undergoing tubal ligations for the purpose of sterilization, two patients were having IUD's removed and eight patients (hysterectomies and laparoscopies) had normal endometria upon histological examination. All had had at least one pregnancy, had no endocrine problems, were cycling normally and were not taking any drugs, except for two patients on Librium® and two on Aldoril®. Ages ranged from 23 to 48 years, the average being 31±5 years.
(§8) Metabolism. Amounts varying from 55 to 400 mg of endometrium were incubated in 2.5 ml of modified bicarbonate buffer with 10 μl of [6,7-^3 H]E2 (3×10^-9 M) and 100 μl of Na2^35 SO4 (1×10^-4 M). The remainder of the procedure was the same as described for gilt uterus in Example 2

human endometrium = test: as above; type: in vitro ADME; details: 0.003 µM
Experimental: as §6, §7, §8

[3] = tested on: uteri obtained from fertilized pigs; details: average, uteri undergoing normal estrous cycle, regardless of phase; 0.003 µM; cited from earlier work

SMILES: C[C@]12CC[C@@H]3c4ccc(O)cc4CC[C@H]3[C@@H]1CC[C@@H]2O [1,3,5(10)Estratriene-3,17β-diol]
- metabolised at 2 h, 0.003 µM (in vitro; 2-hour incubation, day of insemination, read-out: sulfurylation of the 3-hydroxyl group, day of insemination): 3%
- metabolised at 2 h, 0.003 µM (in vitro; Table III mean line (SD ± 5.7 on next line), read-out: Percent of added E2 found as Free E1, mean): 16.6%
- metabolised at 2 h, 0.003 µM (in vitro; Table III, 25 (A), anovulatory gilt, 2 h incubation, read-out: Percent of added E2 found as Total E1, anovulatory gilt): 12.9%
- sulfurylation in gilt uterus ([1]; 2-hour incubation, 5 to 23 days following fertilization, P<0.05 vs sow): 57.2±8.9%
- sulfurylation in sow uterus ([1]; 2-hour incubation, 8 to 25 days following fertilization, P<0.05 vs gilt): 41.2±6.0%
- Percent of added E2 found as E1 S, mean ([1]; Table III mean line, days 5-25 (SD ± 6.4)): 32.6%
- Percent of added E2 found as Total E1, mean ([1]; Table III mean line, days 5-25 (SD ± 10.1)): 49.8%
- Percent of added E2 found as Free E1 ([1]; Table III, 2 h incubation, 3×10^-9 M [3H]E2, by days following fertilization (S sow, G gilt), listed as E2, 120 min): 16.4%
- conversion of added labeled E2 to E1 ([1]; metestrus, uteri from fertilized pigs): 13.6%
- metabolised at 2 h, 0.003 µM ([2]; proliferative days 4-7, 55, 118, 329 mg tissue by row, read-out: Percent of tritiated E2 oxidized to estrone, proliferative): 29%
- metabolised at 2 h, 0.003 µM ([2]; secretory day 24, 60, 120, 300 mg tissue by row, read-out: Percent of tritiated E2 oxidized to estrone (E1 + E1 sulfate), secretory): 78%
- Percent of tritiated E2 sulfurylated, proliferative (human endometrium; Table IV, proliferative days 4-7, 55, 118, 329 mg tissue by row, 2 h, 3×10^-9 M E2): 0%
- Percent of tritiated E2 oxidized to estrone, proliferative (human endometrium; Table IV, proliferative days 4-7, 55, 118, 329 mg tissue by row, 2 h, 3×10^-9 M E2, listed as E2, 120 min): 47% and 45%
- Percent of tritiated E2 oxidized to estrone (E1 + E1 sulfate), secretory (human endometrium; Table IV, secretory day 24, 60, 120, 300 mg tissue by row, 2 h, 3×10^-9 M E2, listed as E2, 120 min): 82%
- oxidation of labeled E2 to E1 plus E1 sulfate, days 14 and 15 (human endometrium; same three endometrial curettings, days 14 and 15, listed as E2, 0.003 µM): 70% and 75% and 93%
- added E2 found as free E1, normal estrous cycle [3]: 18.7±7.2%
